Source: patent publication US4450162A, “Pyrimidine derivatives and a pharmaceutical composition containing them” (Sankyo Company, Limited, priority 1981, dated 1984)
Structures can show the parent of a compound that is named as a salt.

Columns and labels:
[1] = Antidepressant activity (general statement); conditions: in vivo
[2] = system: reserpine-induced ptosis; experiment: Test for anti-reserpine activity (inhibition of reserpine-induced ptosis); assay type: in vivo, male mice of the ddy strain; conditions: Mus musculus, po, read-out: Reserpine inhibition (percentage inhibition of reserpine-induced ptosis); for inhibition in vivo at 50 mg/kg: 50 mg/kg orally, reserpine 2 mg/kg s.c., sum of observations at 90, 120 and 180 min, groups of three mice
Protocol: 1 Test for anti-reserpine activity
The test animals used were male mice of the ddy strain, each weighing 23-25 g. Each compound was tested on a group of three such mice. Each test compound was employed in the form of a solution or suspension in a physiological saline solution containing 0.3% w/v carboxymethylcellulose. The test employed was a partial modification of the method of Rubin et al. [J. Pharmacol. Exptl.
At each observation, each mouse was assigned from 0 to 3 points corresponding to the degree of ptosis, as follows:
0 points: eyes completely open;
1 point: eyes about one third closed;
2 points: eyes about two thirds closed;
3 points: eyes completely closed.
For each mouse, the number of points from all three observations were added together and the percentage inhibition of reserpine-induced ptosis was calculated from the following formula: [formula] in which:
Po =total number of points from three observations of an animal to which reserpine alone was administered; and
Pt =total number of points from three observations of an animal to which reserpine and the test compound were administered.

[3] = Acute toxicity test; assay type: in vivo, male mice of the ddy strain; conditions: for Mortality (deaths/animals tested): 7 days observation
Protocol: The test animals used were male mice of the ddy strain, each weighing from 21 to 25 g. To each animal was administered orally a single dose of the test compound in the amount shown in Table 2; the animals were then placed under observation for 7 days after administration. The results are reported in Table 2 as "Mortality", where the numerator indicates the number of deaths in the observation period and the denominator indicates the number of animals tested with the particular test compound at the particular dose.

[4] = system: effects of d-amphetamine; experiment: Potentiation of d-Amphetamine effects; assay type: in vivo, male rats of the Wistar strain; conditions: 10 mg/kg orally, 60 min before d-amphetamine sulphate 2.5 mg/kg s.c.; observations 30-240 min; groups of 4 rats
Protocol: 2. Potentiation of d-Amphetamine effects
The test animals used in this experiment were male rats of the Wistar strain, each weighing from 250 to 300 g. The rats were employed in groups of 4 animals each, for each test. The test compound was employed in the form of a solution or suspension in physiological saline containing 0.3% w/v carboxymethylcellulose.
Each rat was placed in an observation cage and then given orally the solution or suspension of the test compound in an amount of 10 mg of test compound per kilogram body weight; 60 minutes later, 2.5 mg/kg of d-amphetamine sulphate were injected subcutaneously. The rats were observed 30 minutes, 60 minutes, 90 minutes, 120 minutes, 150 minutes, 180 minutes and 240 minutes after the injection of the d-amphetamine sulphate. At each observation, each animal was assigned from 0 to 5 points according to its mobility, as follows:
1 point: slight moving around;
3 points: sniffing appears;
4 points: licking appears;
5 points: biting appears.
The percentage potentiation of the effects of d-amphetamine was then calculated from the following formula: [formula] where:
P'o =total number of points from all observations of an animal to which d-amphetamine alone was administered; and
P't =total number of points from all seven observations of an animal to which both the test compound and d-amphetamine were administered.

SMILES | inhibition in vivo at 50 mg/kg [2] | d-Amphetamine potentiation (percentage potentiation of the effects of d-amphetamine) [4] | other results
Cc1ncnc(Nc2ccccc2)c1Br [4-anilino-5-bromo-6-methylpyrimidine] |  |  | antidepressant activity [1]: no antidepressant activity
c1ccc(Nc2ncnc3c2CCC3)cc1 [Compound No. 2, 4-Anilino-6,7-dihydro-5H-cyclopenta[d]pyrimidine hydrochloride] | 68.7% |  | 
Clc1ccc(Nc2ncnc3c2CCC3)cc1 [Compound No. 3, 4-(4-Chloroanilino)-6,7-dihydro-5H-cyclopenta[d]pyrimidine] | 82.3% |  | 
Brc1ccc(Nc2ncnc3c2CCC3)cc1 [Compound No. 5, 4-(4-Bromoanilino)-6,7-dihydro-5H-cyclopenta[d]pyrimidine] | 75.6% |  | Mortality (deaths/animals tested) ([3]; single oral dose 500 mg/kg): 0/5; Mortality (deaths/animals tested) ([3]; single oral dose 1000 mg/kg): 0/5
N#Cc1ccc(Nc2ncnc3c2CCC3)cc1 [Compound No. 14, 4-(4-Cyanoanilino)-6,7-dihydro-5H-cyclopenta[d]pyrimidine] |  |  | inhibition in vivo at 25 mg/kg [2]: 85%
Cc1ncnc(Nc2ccc(Cl)cc2)c1C [Compound No. 25, 4-(4-Chloroanilino)-5,6-dimethylpyrimidine] | 61.1% | 75% | 
Cc1ncnc(Nc2ccc(Br)cc2)c1C [Compound No. 28, 4-(4-Bromoanilino)-5,6-dimethylpyrimidine] | 61.1% | 79% | Mortality (deaths/animals tested) ([3]; single oral dose 1000 mg/kg): 0/5
Cc1ncnc(Nc2ccc(C(F)(F)F)cc2)c1C [Compound No. 38, 5,6-Dimethyl-4-(4-trifluoromethylanilino)pyrimidine] | 68.8% |  | 
Cc1ncnc(Nc2ccc(C(C)C)cc2)c1C [Compound No. 47, 4-(4-Isopropylanilino)-5,6-dimethylpyrimidine] | 70.6% |  | 
CN(C)CCCN1c2ccccc2CCc2ccccc21 [Imipramine hydrochloride, reference compound] | 72.2% | 77% | Mortality (deaths/animals tested) ([3]; single oral dose 500 mg/kg): 3/5; Mortality: deaths on day 3 ([3]; single oral dose 500 mg/kg, on day 3): 1; Mortality: deaths within 1 hour ([3]; single oral dose 500 mg/kg, within 1 hour): 2
CCc1ccc(Nc2ncnc3c2CCC3)cc1 [compound 9, 4-(4-Ethylanilino)-6,7-dihydro-5H-cyclopenta[d]pyrimidine] | 82.3% |  | 
FC(F)(F)c1ccc(Nc2ncnc3c2CCC3)cc1 [compound 11, 4-(4-Trifluoromethylanilino)-6,7-dihydro-5H-cyclopenta[d]pyrimidine] | 62.5% |  | 
Cc1ncnc(Nc2ccc(I)cc2)c1C [compound 32, 4-(4-Iodoanilino)-5,6-dimethylpyrimidine] | 43.8% | 76% | 
CCCCc1c(C)ncnc1Nc1ccc(Br)cc1 [compound 69, 4-(4-Bromoanilino)-5-n-butyl-6-methylpyrimidine] |  | 94% | 
